Laboratory results taken from patent publication US20230009608A1, “GRK2 INHIBITORS AND USES THEREOF” (Cygnal Therapeutics, Inc., priority 2020, published 2023).

What was measured:
[1] = test system: PAXF1657 control empty vector cell line; experiment: 7-day proliferation assay, PAXF1657 control empty vector cell line (Example 9); assay type: cell-based; details: 168 h; Cell Line: PAXF1657 empty vector (EV) cell line; 7-day; read-out: C: 7-day proliferation assay: IC50 GeoMean
Method in brief: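 Isogenic PAXF1657 pairs differing in GRK2 level (stable cDNA overexpression or CRISPR knockout, each with matched control) are seeded and allowed to attach overnight. Inhibitors span 30 μM-0.0002 μM in 0.3% DMSO for 3 plus 4 days at 37° C, 5% CO2, with a medium change between.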

[2] = biological target: T1, GRK2 (Homo sapiens, UniProt P25098); experiment: ADPGlo GRK2 Inhibition Assay (Example 8); assay type: biochemical; details: Enzyme Assay A, ADPGlo (Example 8); read-out: A: Enzymatic GRK2: IC50 (nM) (Example 8)
T1 construct: purchased SignalChem A14-10G
T1 sequence (P25098 1-689): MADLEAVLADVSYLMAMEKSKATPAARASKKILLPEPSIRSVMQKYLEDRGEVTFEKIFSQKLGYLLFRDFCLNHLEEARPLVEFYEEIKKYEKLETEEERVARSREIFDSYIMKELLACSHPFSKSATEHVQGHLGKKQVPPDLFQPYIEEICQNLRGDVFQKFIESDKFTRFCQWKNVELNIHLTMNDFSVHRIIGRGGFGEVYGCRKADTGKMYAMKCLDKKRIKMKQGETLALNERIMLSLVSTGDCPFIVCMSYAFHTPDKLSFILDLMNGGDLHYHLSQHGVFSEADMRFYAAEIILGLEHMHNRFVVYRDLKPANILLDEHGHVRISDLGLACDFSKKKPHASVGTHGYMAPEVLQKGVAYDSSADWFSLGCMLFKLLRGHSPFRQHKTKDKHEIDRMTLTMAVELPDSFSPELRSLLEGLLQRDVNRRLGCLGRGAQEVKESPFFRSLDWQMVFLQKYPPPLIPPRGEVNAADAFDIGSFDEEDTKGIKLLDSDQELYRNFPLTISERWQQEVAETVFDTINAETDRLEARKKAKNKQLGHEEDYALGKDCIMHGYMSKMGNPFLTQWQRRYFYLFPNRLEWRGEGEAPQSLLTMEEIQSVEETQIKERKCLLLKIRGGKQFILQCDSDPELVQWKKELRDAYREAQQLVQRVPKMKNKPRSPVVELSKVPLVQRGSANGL
Method in brief: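 GRK2 (15 nM 2× enzyme solution) was preincubated 15 min with compound, then reacted 180 min at room temperature with 2× mix of 20 μM ATP plus GRKtide in HEPES pH 7.5, MgCl2, Tween-20, DTT. ADP was detected by ADP-Glo luminescence. Percent inhibition was normalised to enzyme and no-enzyme controls, with dose-response curves from threefold dilutions starting at 100 μM.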

SMILES | IC50 [1] | IC50 [2]
Cn1c(CNc2cccc(C(=O)NC3(c4ccccc4)CC3)c2)nnc1-c1ccncn1 | > 10000 nM | 34 nM
Cn1ncc(Br)c1CNC(=O)c1cccc(NCc2nnc(-c3ccncn3)n2C)c1 | > 10000 nM | 22 nM
Cn1c(CNc2cccc(C(=O)NC(C)(C)c3ccncc3)c2)nnc1-c1ccncn1 | > 10000 nM | 49 nM
CCn1ncc(Cl)c1CNC(=O)c1cccc(NCc2nnc(-c3ccncn3)n2C)c1 | > 10000 nM | 16 nM
Cn1c(CNc2cccc(C(=O)NCc3ncccc3F)c2)nnc1-c1ccncn1 | 164 nM | 69 nM
COCC(NC(=O)c1cccc(NCc2nnc(-c3ccncn3)n2C)c1)c1ccccc1 (stereo not shown) | > 10000 nM | 36 nM
Cn1c(CNc2cccc(C(=O)NCc3cnccc3C(F)(F)F)c2)nnc1-c1ccncn1 | > 10000 nM | 39 nM
COc1cccc(F)c1CNC(=O)c1cccc(NCc2nnc(-c3ccncn3)n2C)c1 | 149 nM | 16 nM
Cn1c(CNc2cccc(C(=O)NCc3c(Cl)cncc3Cl)c2)nnc1-c1ccncn1 | 4320 nM | 31 nM
Cn1c(CNc2cccc(C(=O)NCc3ccncc3C(F)(F)F)c2)nnc1-c1ccncn1 | > 10000 nM | 33 nM
Cc1cnc(CNC(=O)c2cccc(NCc3nnc(-c4ccncn4)n3C)c2)c(C)c1 | > 10000 nM | 10 nM
COc1cccc(CNC(=O)c2cccc(NCc3nnc(-c4ccncn4)n3C)c2)c1 | > 30000 nM | 22 nM
CC(C)c1ocnc1CNC(=O)c1cccc(NCc2nnc(-c3ccncn3)n2C)c1 | > 10000 nM | 350 nM
COc1ccccc1[C@H](C)NC(=O)c1cccc(NCc2nnc(-c3ccncn3)n2C)c1 | > 10000 nM | 94 nM
CC(NC(=O)c1cccc(NCc2nnc(-c3ccncn3)n2C)c1)c1ccsc1 (stereo not shown) | > 10000 nM | 4.9 nM
Cn1c(CNc2cccc(C(=O)NCc3c(F)cccc3-n3cccn3)c2)nnc1-c1ccncn1 | > 10000 nM | 24 nM
COC[C@H](NC(=O)c1cccc(NCc2nnc(-c3ccncn3)n2C)c1)c1ccccn1 | > 10000 nM | 54 nM
Cn1c(CNc2cccc(C(=O)NCc3ccccc3CN3CCCC3=O)c2)nnc1-c1ccncn1 | > 10000 nM | 49 nM
C[C@H](NC(=O)c1cccc(NCc2nnc(-c3ccncn3)n2C)c1)c1cncs1 | > 10000 nM | 410 nM
Cn1c(CNc2cccc(C(=O)N[C@H]3CCOc4c(F)cccc43)c2)nnc1-c1ccncn1 | 1230 nM | 11 nM
Cn1c(CNc2cccc(C(=O)NCc3cccc(C(F)F)c3)c2)nnc1-c1ccncn1 | > 10000 nM | 22 nM
Cn1c(CNc2cccc(C(=O)NCc3ccccc3)c2)nnc1-c1ccncn1 | > 10000 nM | 20 nM

SMILES | IC50 [1] | IC50 [2]
Cn1c(CNc2cccc(C(=O)NCc3ccc(F)cc3)c2)nnc1-c1ccncn1 | 2160 nM | 19 nM
Cc1ccncc1CNC(=O)c1cccc(NCc2nnc(-c3ccncn3)n2C)c1 | 557 nM | 13 nM
COc1ccnc(CNC(=O)c2cccc(NCc3nnc(-c4ccncn4)n3C)c2)c1F | > 10000 nM | 200 nM
Cn1c(CNc2cccc(C(=O)NCc3cccc(C#N)c3F)c2)nnc1-c1ccncn1 | > 10000 nM | 30 nM
CC(NC(=O)c1cccc(NCc2nnc(-c3ccncn3)n2C)c1)c1ncnn1C (stereo not shown) | > 10000 nM | 230 nM
Cc1cccnc1C(C)(C)NC(=O)c1cccc(NCc2nnc(-c3ccncn3)n2C)c1 | > 10000 nM | 630 nM
COc1c(C)cccc1CNC(=O)c1cccc(NCc2nnc(-c3ccncn3)n2C)c1 | 2060 nM | 29 nM
COc1cccnc1CNC(=O)c1cccc(NCc2nnc(-c3ccncn3)n2C)c1 | > 10000 nM | 290 nM
CC(NC(=O)c1cccc(NCc2nnc(-c3ccncn3)n2C)c1)c1ccncc1F (stereo not shown) | 103 nM | 15 nM
COc1ncccc1CNC(=O)c1cccc(NCc2nnc(-c3ccncn3)n2C)c1 | > 10000 nM | 70 nM
Cc1ccncc1C(C)NC(=O)c1cccc(NCc2nnc(-c3ccncn3)n2C)c1 (stereo not shown) | 537 nM | 50 nM
CCCC(NC(=O)c1cccc(NCc2nnc(-c3ccncn3)n2C)c1)c1ccccn1 (stereo not shown) | 1220 nM | 67 nM
Cn1c(CNc2cccc(C(=O)NCc3ncnn3-c3ccccc3)c2)nnc1-c1ccncn1 | > 10000 nM | 59 nM
Cn1c(CNc2cccc(C(=O)NC(CCO)c3cccc(F)c3)c2)nnc1-c1ccncn1 (stereo not shown) | > 10000 nM | 37 nM
COCC(NC(=O)c1cccc(NCc2nnc(-c3ccncn3)n2C)c1)c1ccc(F)c(F)c1 (stereo not shown) | 280 nM | 46 nM
Cn1c(CNc2cccc(C(=O)NC3(c4cccnc4)CC3)c2)nnc1-c1ccncn1 | 583 nM | 200 nM
C[C@H](NC(=O)c1cccc(NCc2nnc(-c3ccncn3)n2C)c1)c1ccncc1 | 771 nM | 45 nM
Cn1c(CNc2cccc(C(=O)NC3COc4cccc(F)c43)c2)nnc1-c1ccncn1 (stereo not shown) | > 10000 nM | 12 nM
Cc1cccc2c1OCC[C@@H]2NC(=O)c1cccc(NCc2nnc(-c3ccncn3)n2C)c1 | > 10000 nM | 15 nM
Cn1c(CNc2cccc(C(=O)C[C@H]3CCCc4cccnc43)c2)nnc1-c1ccncn1 | 224 nM | 20 nM
Cc1csc(C2(NC(=O)c3cccc(NCc4nnc(-c5ccncn5)n4C)c3)CCC2)n1 | 445 nM | 140 nM
Cn1c(CNc2cccc(C(=O)NC3(c4ccncn4)CC3)c2)nnc1-c1ccncn1 | 726 nM | 100 nM

SMILES | IC50 [1] | IC50 [2]
CC(C)C(NC(=O)c1cccc(NCc2nnc(-c3ccncn3)n2C)c1)c1ccncc1 (stereo not shown) | 1170 nM | 32 nM
Cn1c(CNc2cccc(C(=O)NCc3ncccc3C(F)(F)F)c2)nnc1-c1ccncn1 | > 10000 nM | 17 nM
C[C@H](NC(=O)c1cccc(NCc2nnc(-c3ccncn3)n2C)c1)C1NCCS1 (stereo partly shown) | 172 nM | 150 nM
CC(NC(=O)c1cccc(NCc2nnc(-c3ccncn3)n2C)c1)c1ncccc1Br (stereo not shown) | > 10000 nM | 9.4 nM
CCn1cnnc1CNC(=O)c1cccc(NCc2nnc(-c3ccncn3)n2C)c1 | > 10000 nM | 72 nM
COc1cccc(F)c1C(C)NC(=O)c1cccc(NCc2nnc(-c3ccncn3)n2C)c1 (stereo not shown) | > 10000 nM | 27 nM
COC[C@H](NC(=O)c1cccc(NCc2nnc(-c3ccncn3)n2C)c1)c1cccnc1 | 6110 nM | 46 nM
Cn1c(CNc2cccc(C(=O)NC(c3ccncc3)C3CCC3)c2)nnc1-c1ccncn1 (stereo not shown) | 136 nM | 22 nM
COc1cccc2c1CCC2NC(=O)c1cccc(NCc2nnc(-c3ccncn3)n2C)c1 (stereo not shown) | 543 nM | 15 nM
Cn1c(CNc2cccc(C(=O)NCc3ccc(C[S+](C)[O-])cc3)c2)nnc1-c1ccncn1 (stereo not shown) | > 10000 nM | 170 nM
CC(NC(=O)c1cccc(NCc2nnc(-c3ccncn3)n2C)c1)c1ccc2c(c1)CC(=O)N2C (stereo not shown) | 158 nM | 21 nM
Cn1c(CNc2cccc(C(=O)NC3CCOc4ccccc43)c2)nnc1-c1ccncn1 (stereo not shown) | 563 nM | 22 nM
Cn1c(CNc2cccc(C(=O)NC(CO)c3cccc(C(F)(F)F)c3)c2)nnc1-c1ccncn1 (stereo not shown) | > 10000 nM | 34 nM
Cn1c(CNc2cccc(C(=O)N[C@H]3COCc4c(Cl)cccc43)c2)nnc1-c1ccncc1F | 245 nM | 21.9 nM
CNS(=O)(=O)c1cccc(F)c1CNC(=O)c1cccc(NCc2nnc(-c3ccncc3F)n2C)c1 | 2700 nM | 33.9 nM
Cn1c(CNc2cccc(C(=O)N[C@@H]3COc4cc(F)ccc43)c2)nnc1-c1ccncc1F | 201 nM | 22.7 nM
Cn1c(CNc2cccc(C(=O)N[C@H]3COc4cc(F)ccc43)c2)nnc1-c1ccncc1F | > 30000 nM | 111 nM
CNS(=O)(=O)c1cccc(F)c1CNC(=O)c1cccc(NCc2nnc(-c3ccncc3)n2C)c1 | 1240 nM | 15.2 nM
Cn1c(CNc2cccc(C(=O)N[C@H]3CCOc4c(Cl)cccc43)c2)nnc1-c1ccncc1 | > 30000 nM | 32.1 nM
Cn1c(CNc2cccc(C(=O)N[C@@H]3CCOc4c(Cl)cccc43)c2)nnc1-c1ccncc1 | > 865 nM | 27.5 nM
Cn1c(CNc2cccc(C(=O)N[C@H]3COc4cc(F)ccc43)c2)nnc1-c1ccncc1 | > 7490 nM | 6.81 nM
